Laboratory results: US20250230193A1, “CYCLIC COMPOUND HAVING SELECTIVE KRAS INHIBITORY EFFECT ON HRAS AND NRAS” (CHUGAI SEIYAKU KABUSHIKI KAISHA, priority 2022, published 2025)
*1 amine or outer side, *2 acyl side, *3 side chain or, on linkers, in order; H or OH if unused. Where a SMILES comes first, the peptide text is derived from it. Bridges are numbered along the chain shown (N, C = ends). [ ]: non-standard residue; d: D form. The star is where a group is joined. hPhe(3-Cl-4-CF3) = N[C@@H](CCc1ccc(C(F)(F)F)c(Cl)c1)C(=O)O; X42 = COCCCN([C@@H](Cc1ccc(C(F)(F)F)cc1)C(=O)[*:2])[*:1]; NMeGly(cPent) = CN[C@H](C(=O)O)C1CCCC1; NMeD = CN[C@@H](CC(=O)O)C(=O)O; NMeL = CN[C@@H](CC(C)C)C(=O)O; Morpholide = C1CN(*)CCO1; NMeA = CN[C@@H](C)C(=O)O; Ac5c = NC1(C(=O)O)CCCC1; Aze = O=C(O)[C@@H]1CCN1; Sar = CNCC(=O)O

How the values were obtained:
[1] = target: GDP-bound HRAS wild-type protein (Homo sapiens, UniProt P01112); test: Binding to HRAS by surface plasmon resonance (SPR), Single Cycle Kinetics; details: for HRAS/KRAS (ratio of KD value with respect to HRAS to KD value with respect to KRAS): GDP-bound HRAS wild-type vs GDP-bound KRAS wild-type; for HRAS/KRAS (ratio of KD value with respect to GDP-bound HRAS wild-type protein to KD value with respect to KRAS): class symbols
GDP-bound HRAS wild-type protein, sequence (P01112 whole entry): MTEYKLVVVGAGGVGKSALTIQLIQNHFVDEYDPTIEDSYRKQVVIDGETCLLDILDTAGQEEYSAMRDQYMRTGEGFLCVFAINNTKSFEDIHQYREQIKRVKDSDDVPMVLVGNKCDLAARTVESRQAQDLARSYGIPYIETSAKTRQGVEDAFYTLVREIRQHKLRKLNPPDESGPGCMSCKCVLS

[2] = target: GDP-bound NRAS wild-type protein (Homo sapiens, UniProt P01111); test: Binding to NRAS by surface plasmon resonance (SPR), Single Cycle Kinetics; details: for NRAS/KRAS (ratio of KD value with respect to NRAS to KD value with respect to KRAS): GDP-bound NRAS wild-type vs GDP-bound KRAS wild-type; for NRAS/KRAS (ratio of KD value with respect to GDP-bound NRAS wild-type protein to KD value with respect to KRAS): class symbols
GDP-bound NRAS wild-type protein, sequence (P01111 whole entry): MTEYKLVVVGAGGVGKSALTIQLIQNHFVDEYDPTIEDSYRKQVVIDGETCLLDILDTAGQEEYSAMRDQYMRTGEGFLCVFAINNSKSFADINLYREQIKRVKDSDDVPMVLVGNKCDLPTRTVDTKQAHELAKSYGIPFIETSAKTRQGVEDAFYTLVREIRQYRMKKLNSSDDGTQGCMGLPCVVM

Compound: CC[C@H](C)[C@@H]1NC(=O)[C@H](Cc2cccc(Cl)c2)N(C)C(=O)C[C@@H](C(=O)N2CCOCC2)N(C)C(=O)[C@H](C2CCCC2)N(C)C(=O)C2(CCCC2)NC(=O)[C@@H]2CCCN2C(=O)[C@H](CCc2ccc(C(F)(F)F)c(Cl)c2)NC(=O)CN(C)C(=O)[C@H](Cc2ccc(F)cc2)N2CCCCC[C@@H](C2=O)N(C)C(=O)CN(C)C1=O [PP0963]
- HRAS/KRAS (ratio of KD value with respect to HRAS to KD value with respect to KRAS) ([1]; KD ratio, SPR): B (a compound having 3 or more and less than 10 is denoted as B)
- NRAS/KRAS (ratio of KD value with respect to NRAS to KD value with respect to KRAS) ([2]; KD ratio, SPR): B (a compound having 3 or more and less than 10 is denoted as B)

Compound: CC[C@H](C)[C@@H]1NC(=O)[C@H](CC(C)C)N(C)C(=O)C[C@@H](C(=O)N2CCOCC2)N(C)C(=O)[C@H](C2CCCC2)N(C)C(=O)C2(CCCC2)NC(=O)[C@@H]2CCCN2C(=O)[C@H](CCc2ccc(C(F)(F)F)c(Cl)c2)NC(=O)CN(C)C(=O)[C@H](Cc2ccc(C(F)(F)F)cc2)N(CCCOC)C(=O)[C@@H]2CCN2C(=O)[C@H](C)N(C)C1=O [PP0119] ([NMeL]I[NMeA][Aze][X42][Sar][hPhe(3-Cl-4-CF3)]P[Ac5c][NMeGly(cPent)][NMeD]-Morpholide; lactam N-11)
- HRAS/KRAS (ratio of KD for GDP-bound HRAS wild-type to KD for KRAS) ([1]; KD ratio HRAS/KRAS, SPR): C (A compound having a KD ratio of 0.1 or more and less than 3 is denoted as C)
- NRAS/KRAS (ratio of KD for GDP-bound NRAS wild-type to KD for KRAS) ([2]; KD ratio NRAS/KRAS, SPR): C (A compound having a KD ratio of 0.1 or more and less than 3 is denoted as C)

Compound: CCC[C@H]1C(=O)N[C@@H]([C@@H](C)CC)C(=O)N(C)CC(=O)N(C)[C@H]2C/C=C\CCN(C2=O)[C@@H](Cc2ccc(C)cc2)C(=O)N(C)CC(=O)N[C@@H](CCc2ccc(Cl)c(C(F)(F)F)c2)C(=O)N2C[C@H](OCC)C[C@H]2C(=O)NC2(CC(C)(C)C2)C(=O)N(C)[C@@H](C(CC)CC)C(=O)N(C)[C@H](C(=O)N(C)C)CC(=O)N1C [PP2787]
- HRAS/KRAS (ratio of KD value with respect to GDP-bound HRAS wild-type protein to KD value with respect to KRAS) ([1]; KD ratio HRAS/KRAS): A (a compound having 10 or more and less than 20 is denoted as A)
- NRAS/KRAS (ratio of KD value with respect to GDP-bound NRAS wild-type protein to KD value with respect to KRAS) ([2]; KD ratio NRAS/KRAS): AA (a compound having 20 or more is denoted as AA)

Compound: CCO[C@@H]1C[C@H]2C(=O)NC3(CCC3)C(=O)N(C)[C@@H](C3CCCC3)C(=O)N(C)[C@H](C(=O)N(C)C)CC(=O)N(C)[C@@H](Cc3ccccc3F)C(=O)N[C@@H]([C@@H](C)CC)C(=O)N(C)CC(=O)N(C)[C@H]3CCCCCN(C3=O)[C@@H](Cc3ccc(C(F)(F)F)cc3)C(=O)N(C)CC(=O)N[C@@H](CCc3cc(F)c(C(F)(F)F)c(F)c3)C(=O)N2C1 [PP0934]
- HRAS/KRAS (ratio of KD value with respect to HRAS to KD value with respect to KRAS) ([1]; KD ratio, SPR): B (a compound having 3 or more and less than 10 is denoted as B)
- NRAS/KRAS (ratio of KD value with respect to NRAS to KD value with respect to KRAS) ([2]; KD ratio, SPR): B (a compound having 3 or more and less than 10 is denoted as B)

Compound: CCO[C@@H]1C[C@H]2C(=O)NC3(CC(C)(C)C3)C(=O)N(C)[C@@H](C(CC)CC)C(=O)N(C)[C@H](C(=O)N3CCCC3)CC(=O)N(C)[C@@H](C)C(=O)N[C@@H]([C@@H](C)CC)C(=O)N(C)CC(=O)N(C)[C@H]3C/C=C\CCN(C3=O)[C@@H](Cc3ccc(C)cc3)C(=O)N(C)CC(=O)N[C@@H](CCc3ccc(Cl)c(Cl)c3)C(=O)N2C1 [PP2187]
- HRAS/KRAS (ratio of KD value with respect to HRAS to KD value with respect to KRAS) ([1]; SPR): A (a compound having 10 or more and less than 20 is denoted as A)
- NRAS/KRAS (ratio of KD value with respect to NRAS to KD value with respect to KRAS) ([2]; SPR): AA (a compound having 20 or more is denoted as AA)

Compound: CCC[C@H]1C(=O)N[C@@H]([C@@H](C)CC)C(=O)N(C)CC(=O)N(C)[C@H]2C/C=C\CCN(C2=O)[C@@H](Cc2ccc(C(F)(F)F)cc2)C(=O)N(C)CC(=O)N[C@@H](CCc2ccc3c(C)cn(C)c3c2)C(=O)N2C[C@H](OCC)C[C@H]2C(=O)NC2(CC(C)(C)C2)C(=O)N(C)[C@@H](C2CCCC2)C(=O)N(C)[C@H](C(=O)N(C)C)CC(=O)N1C [PP2897]
- HRAS/KRAS (ratio of KD value with respect to GDP-bound HRAS wild-type protein to KD value with respect to KRAS) ([1]; KD ratio HRAS/KRAS): B (a compound having 3 or more and less than 10 is denoted as B)
- NRAS/KRAS (ratio of KD value with respect to GDP-bound NRAS wild-type protein to KD value with respect to KRAS) ([2]; KD ratio NRAS/KRAS): A (a compound having 10 or more and less than 20 is denoted as A)

Compound: CCO[C@@H]1C[C@H]2C(=O)NC3(CCC3)C(=O)N(C)[C@@H](C3CCCC3)C(=O)N(C)[C@H](C(=O)N(C)C)CC(=O)N(C)[C@@H](C)C(=O)N[C@@H]([C@@H](C)CC)C(=O)N(C)CC(=O)N(C)[C@H]3CCCCCN(C3=O)[C@@H](Cc3ccc(F)cc3)C(=O)N(C)CC(=O)N[C@@H](CCc3cc(F)c(C(F)(F)F)c(F)c3)C(=O)N2C1 [PP1189]
- HRAS/KRAS (ratio of KD value with respect to HRAS to KD value with respect to KRAS) ([1]; KD ratio, SPR): B (a compound having 3 or more and less than 10 is denoted as B)
- NRAS/KRAS (ratio of KD value with respect to NRAS to KD value with respect to KRAS) ([2]; KD ratio, SPR): B (a compound having 3 or more and less than 10 is denoted as B)
